Reference: patent US12227509B2, “Dihydropyrazolopyrazinone derivative having MGAT2 inhibitory activity” (Shionogi & Co., Ltd., priority 2019, dated 2025)

Biological target: recombinant human MGAT2 (Homo sapiens (Human), UniProt Q3SYC2)
Test: Measurement of human MGAT2 inhibitory activity
Format: biochemical
Details: concentration exhibiting 50% enzyme inhibition; recombinant human MGAT2, 2-Oleoylglycerol/Oleoyl-CoA
Method: A full-length human MGAT2 gene to which a Flag-tag had been added at the N-terminal was inserted into pFastBac (from Invitrogen). A recombinant baculovirus was produced in accordance with the protocol for a Bac-to-Bac baculovirus expression system (produced by Invitrogen), and Sf-9 cells were infected therewith. The cells were collected and sonicated, and then the membrane fraction was collected through centrifugation. Western blotting analysis with an anti-Flag antibody was performed for the membrane fraction to confirm expression, and the membrane fraction was used as a recombinant human MGAT2 enzyme solution.
Solutions of the compounds of the present invention in DMSO were each aliquoted into 0.2-μL portions in a 384-well polystyrene microplate produced by Corning Incorporated, and 5 μL of an enzyme solution prepared with an assay buffer (100 mmol/L phosphate buffer (pH 7.4) containing 2 mmol/L DTT) and 5 μL of a substrate solution (100 mmol/L phosphate buffer (pH 7.4), 30 μmol/L 2-Oleoylglycerol, 10 μmol/L Oleoyl-CoA) were added thereto, and the resultant was stirred and centrifuged, and incubated in a moist chamber at room temperature for 1 hour. After enzymatic reaction, 50 μL of a quenching solution (containing 0.2 μmol/L Diolein-d5, 0.4% formic acid, and 50% isopropanol) containing Internal Standard (IS) was added to terminate the reaction, and the resultant was sealed in a plate produced by Shimadzu GLC Ltd., and then stirred and centrifuged, and measurement was performed by using an electrospray ionization method with a RapidFire360 and Agilent 6550 Q-TOF mass spectrometer. Diolein as a reaction product (P) of 2-Oleoylglycerol as the substrate and an ammonium adduct ion of the IS were detected, and the peak intensity ratio, P/IS, was calculated from the peak heights to evaluate the inhibitory activity. Inhibitory activities with/without addition of enzyme were defined as Control (+)/Control (−), respectively, and the respective % inhibitions were defined as 0% inhibition and 100% inhibition. The inhibitory activity was calculated from formula below with TIBCO Spotfire (produced by TIBCO Software Inc.)
Inhibitory activity (%)=[1−{Sample−Control (−)}/{Control (+)−Control (−)}]*100 where Sample indicates a peak intensity ratio: P/IS, when the compound of the present invention was added.

Sequence of recombinant human MGAT2 (Q3SYC2 whole entry): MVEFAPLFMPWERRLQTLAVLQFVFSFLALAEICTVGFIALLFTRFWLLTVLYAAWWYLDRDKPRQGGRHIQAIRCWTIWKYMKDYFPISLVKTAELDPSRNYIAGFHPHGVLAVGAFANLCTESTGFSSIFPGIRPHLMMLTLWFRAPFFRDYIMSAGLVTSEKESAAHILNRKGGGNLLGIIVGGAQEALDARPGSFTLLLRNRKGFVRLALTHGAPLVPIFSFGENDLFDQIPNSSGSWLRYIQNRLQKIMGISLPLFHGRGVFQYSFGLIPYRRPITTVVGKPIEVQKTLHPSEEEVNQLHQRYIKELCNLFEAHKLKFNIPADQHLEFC

SMILES | IC50
CS(=O)(=O)CC(=O)Nc1c(-c2ccc(OC(F)(F)F)cc2)nn2c1C(=O)N[C@]1(CCc3cc(OCC(F)(F)F)ccc31)C2 [Compound I-83] | 4.37 nM
CS(=O)(=O)CC(=O)Nc1c(-c2ccc(OC(F)F)cc2)nn2c1C(=O)N[C@]1(CCc3cc(OCC(F)(F)F)ccc31)C2 [Compound I-84] | 2.51 nM
CS(=O)(=O)CC(=O)Nc1c(-c2ccc(C3CC3)cc2)nn2c1C(=O)N[C@]1(CCc3cc(OCC(F)(F)F)ccc31)C2 [Compound I-85] | 2.88 nM
CS(=O)(=O)CC(=O)Nc1c(-c2ccc(OC3CC3)cc2)nn2c1C(=O)N[C@]1(CCc3cc(OCC(F)(F)F)ccc31)C2 [Compound I-86] | 131 nM
CS(=O)(=O)CC(=O)Nc1c(-c2ccc(C#N)cc2)nn2c1C(=O)N[C@]1(CCc3cc(OCC(F)(F)F)ccc31)C2 [Compound I-87] | 2.55 nM
Cc1cc(-c2nn3c(c2NC(=O)CS(C)(=O)=O)C(=O)N[C@]2(CCc4cc(OCC(F)(F)F)ccc42)C3)ccc1F [Compound I-88] | 1.17 nM
CS(=O)(=O)CC(=O)Nc1c(-c2ccc(F)c(F)c2)nn2c1C(=O)N[C@]1(CCc3cc(OCC(F)(F)F)ccc31)C2 [Compound I-89] | 0.761 nM
Cc1ccc(-c2nn3c(c2NC(=O)CS(C)(=O)=O)C(=O)N[C@]2(CCc4cc(OCC(F)(F)F)ccc42)C3)cc1F [Compound I-90] | 1.1 nM
Cc1cc(F)ccc1-c1nn2c(c1NC(=O)CS(C)(=O)=O)C(=O)N[C@]1(CCc3cc(OCC(F)(F)F)ccc31)C2 [Compound I-91] | 19.5 nM
CS(=O)(=O)CC(=O)Nc1c(-c2cc(F)c(F)c(F)c2)nn2c1C(=O)N[C@]1(CCc3cc(OCC(F)(F)F)ccc31)C2 [Compound I-92] | 0.585 nM
CC(C)(O)c1ccc(-c2nn3c(c2NC(=O)CS(C)(=O)=O)C(=O)N[C@]2(CCc4cc(OCC(F)(F)F)ccc42)C3)cc1 [Compound I-93] | 9.47 nM
CS(=O)(=O)CC(=O)Nc1c(CCC2CC2)nn2c1C(=O)N[C@]1(CCc3cc(OCC(F)(F)F)ccc31)C2 [Compound I-94] | 1.08 nM
CCCCCc1nn2c(c1NC(=O)CS(C)(=O)=O)C(=O)N[C@]1(CCc3cc(OCC(F)(F)F)ccc31)C2 [Compound I-95] | 1.48 nM
CS(=O)(=O)CC(=O)Nc1c(-c2ccc(S(C)(=O)=O)cc2)nn2c1C(=O)N[C@]1(CCc3cc(OCC(F)(F)F)ccc31)C2 [Compound I-96] | 208 nM
CC(C)c1ccc(-c2nn3c(c2NC(=O)CS(C)(=O)=O)C(=O)N[C@]2(CCc4cc(OCC(F)(F)F)ccc42)C3)cc1 [Compound I-97] | 3.51 nM
CS(=O)(=O)CC(=O)Nc1c(-c2cc(F)cc(F)c2)nn2c1C(=O)N[C@]1(CCc3cc(OCC(F)(F)F)ccc31)C2 [Compound I-98] | 2.15 nM

SMILES | IC50
CS(=O)(=O)CC(=O)Nc1c(-c2ccc(C#N)c(F)c2)nn2c1C(=O)N[C@]1(CCc3cc(OCC(F)(F)F)ccc31)C2 [Compound I-99] | 1.28 nM
COc1ccc(-c2nn3c(c2NC(=O)CS(C)(=O)=O)C(=O)N[C@]2(CCc4cc(OCC(F)(F)F)ccc42)C3)cc1F [Compound I-100] | 4.59 nM
Cc1c(F)cc(-c2nn3c(c2NC(=O)CS(C)(=O)=O)C(=O)N[C@]2(CCc4cc(OCC(F)(F)F)ccc42)C3)cc1F [Compound I-101] | 1.36 nM
CS(=O)(=O)CC(=O)Nc1c(CCC(F)(F)F)nn2c1C(=O)N[C@]1(CCc3cc(OCC(F)(F)F)ccc31)C2 [Compound I-102] | 5.65 nM
CCOc1ccc2c(c1)CC[C@]21Cn2nc(CCC3CC3)c(NC(=O)CS(C)(=O)=O)c2C(=O)N1 [Compound I-103] | 7.03 nM
CCCCCc1nn2c(c1NC(=O)CS(C)(=O)=O)C(=O)N[C@@]1(CCc3cc(OCC)ccc31)C2 [Compound I-104] | 24.7 nM
CS(=N)(=O)CC(=O)Nc1c(-c2ccc(F)c(F)c2)nn2c1C(=O)N[C@@]1(CCc3cc(OCC(F)(F)F)ccc31)C2 (some centres unmarked) [Compound I-108] | 3.43 nM
CS(=O)(=O)CC(=O)Nc1c(CCC2CC2)nn2c1C(=O)N[C@@]1(CCOc3cc(OCC(F)(F)F)ccc31)C2 [Compound I-109] | 1.18 nM
CS(=O)(=O)CC(=O)Nc1c(CCC2CC2)nn2c1C(=O)N[C@]1(CCOc3cc(OCC(F)(F)F)ccc31)C2 [Compound I-110] | 2.14 nM
CCOc1ccc2c(c1)CC[C@@]21Cn2nc(CCC3CC3)c(NC(=O)CS(C)(=O)=O)c2C(=O)N1 [Compound I-111] | 7.61 nM
CS(=N)(=O)CC(=O)Nc1c(-c2ccc(C(F)(F)F)cc2)nn2c1C(=O)N[C@@]1(CCc3cc(OCC(F)(F)F)ccc31)C2 (some centres unmarked) [Compound I-112] | 3.96 nM
CCCCCc1nn2c(c1NC(=O)CS(C)(=O)=O)C(=O)N[C@@]1(CCOc3cc(OCC(F)(F)F)ccc31)C2 [Compound I-113] | 1.58 nM
CCCCCc1nn2c(c1NC(=O)CS(C)(=O)=O)C(=O)N[C@]1(CCOc3cc(OCC(F)(F)F)ccc31)C2 [Compound I-114] | 3.1 nM
CCCCCc1nn2c(c1NC(=O)CS(C)(=O)=O)C(=O)N[C@]1(CCc3cc(OCC)ccc31)C2 [Compound I-115] | 14.5 nM
CCOc1ccc2c(c1)CC[C@]21Cn2nc(-c3ccc(F)cc3)c(NC(=O)CS(C)(=O)=O)c2C(=O)N1 [Compound I-116] | 6.72 nM

The remaining lines, values ahead:

IC50 | SMILES
4.83 nM | CCOc1ccc2c(c1)CC[C@]21Cn2nc(-c3ccc(F)c(F)c3)c(NC(=O)CS(C)(=O)=O)c2C(=O)N1 [Compound I-117]
3.76 nM | CCS(=O)(=O)CC(=O)Nc1c(-c2ccc(F)cn2)nn2c1C(=O)N[C@@]1(CCOc3cc(F)cc(F)c31)C2 [Compound I-118]
2.98 nM | CS(=O)(=O)CC(=O)Nc1c(-c2ccc(F)cn2)nn2c1C(=O)N[C@@]1(CCOc3cc(F)cc(F)c31)C2 [Compound I-119]
2.57 nM | CS(=O)(=O)CC(=O)Nc1c(CCC2CC2)nn2c1C(=O)N[C@@]1(CCOc3cc(F)cc(F)c31)C2 [Compound I-120]
6.02 nM | CS(=O)(=O)CC(=O)Nc1c(-c2ccc(F)cn2)nn2c1C(=O)N[C@@]1(CCc3cc(F)cc(F)c31)C2 [Compound I-121]
21.4 nM | CCS(=O)(=O)CC(=O)Nc1c(-c2ccc(C)cn2)nn2c1C(=O)N[C@@]1(CCc3cc(F)cc(F)c31)C2 [Compound I-122]
2.8 nM | CS(=O)(=O)CC(=O)Nc1c(-c2ccc(F)cc2)nn2c1C(=O)N[C@@]1(CCOc3cc(F)cc(F)c31)C2 [Compound I-125]
2.77 nM | CCS(=O)(=O)CC(=O)Nc1c(-c2ccc(C)cn2)nn2c1C(=O)N[C@@]1(CCc3cc(OCC(F)(F)F)ccc31)C2 [Compound I-127]
91.9 nM | Cc1ccc(-c2nn3c(c2NC(=O)CS(=O)(=O)N(C)C)C(=O)N[C@@]2(CCc4cc(OCC(F)(F)F)ccc42)C3)nc1 [Compound I-128]
10 nM | CS(=O)(=O)CC(=O)Nc1c(-c2ccc(F)cc2)nn2c1C(=O)N[C@@]1(CCc3cc(F)cc(F)c31)C2 [Compound I-129]
9.33 nM | CS(=O)(=O)CC(=O)Nc1c(-c2ccc(C(F)F)cc2)nn2c1C(=O)N[C@@]1(CCc3cc(F)cc(F)c31)C2 [Compound I-131]
3.1 nM | CCOc1ccc2c(c1)OCC[C@]21Cn2nc(-c3ccc(F)cc3)c(NC(=O)CS(C)(=O)=O)c2C(=O)N1 [Compound I-132]
4.49 nM | CCOc1ccc2c(c1)OCC[C@@]21Cn2nc(-c3ccc(F)cc3)c(NC(=O)CS(C)(=O)=O)c2C(=O)N1 [Compound I-134]
3.22 nM | CCOc1ccc2c(c1)OCC[C@@]21Cn2nc(-c3ccc(F)c(F)c3)c(NC(=O)CS(C)(=O)=O)c2C(=O)N1 [Compound I-135]
3.55 nM | CS(=O)(=O)CC(=O)Nc1c(-c2ccc(Cl)c(F)c2)nn2c1C(=O)N[C@@]1(CCc3cc(F)cc(F)c31)C2 [Compound I-138]
11.1 nM | CS(=O)(=O)CC(=O)Nc1c(CCC2CC2)nn2c1C(=O)N[C@@]1(CCc3cc(F)cc(F)c31)C2 [Compound I-140]
1.4 nM | CS(=O)(=O)CC(=O)Nc1c(-c2ccc(Cl)c(F)c2)nn2c1C(=O)N[C@@]1(CCOc3cc(F)cc(F)c31)C2 [Compound I-144]
9.7 nM | CS(=O)(=O)CC(=O)Nc1c(-c2ccc(F)cn2)nn2c1C(=O)N[C@]1(CCc3cc(F)cc(F)c31)C2 [Compound I-146]
10.6 nM | CS(=O)(=O)CC(=O)Nc1c(-c2ccc(F)c(F)c2)nn2c1C(=O)N[C@]1(CCc3cc(F)cc(F)c31)C2 [Compound I-148]
23.4 nM | CS(=O)(=O)CC(=O)Nc1c(CCC2CC2)nn2c1C(=O)N[C@]1(CCc3cc(F)cc(F)c31)C2 [Compound I-149]
11.3 nM | CS(=O)(=O)CC(=O)Nc1c(-c2ccc(F)cn2)nn2c1C(=O)N[C@]1(CCOc3cc(F)cc(F)c31)C2 [Compound I-150]
8.24 nM | CS(=O)(=O)CC(=O)Nc1c(-c2ccc(F)c(F)c2)nn2c1C(=O)N[C@]1(CCOc3cc(F)cc(F)c31)C2 [Compound I-152]
